Drawing on patent US6358937B1, “Method for the treatment of cancer using phosphatidic acid-comprising compositions” (Modus Biological Membranes Ltd., priority 1996, dated 2002), this text covers relative growth rate for two compounds.

Holding throughout (assay type): cell-based, murine
Experiment [1] concerns P388 (unadapted). Description: Growth rate of unadapted P388 cells. Conditions: unadapted P388 grown in the presence of 10^−8M drug; relative to unadapted P388 = 100. As for the experimental part:
(§1) P388/MET and P388/DOX resistant cell lines were developed as described in Example 7 above. Non-treated P388 cells and resistant cell lines of these cells were grown in the presence and absence of 10^−8M of MET or DOX as indicated in Table 5 below.

Experiment [2] has as its system P388/DOX. Briefly: Growth rate of P388/DOX resistant cells. As to conditions: P388/DOX grown in the presence of 10^−8 drug, no lipid treatment. As for the experimental part: as §1
Experiment [3] relates to P388/MET. Description: Growth rate of P388/MET resistant cells. Conditions: P388/MET grown in the presence of 10^−8 drug, no lipid treatment. How it is done: as §1

With `COc1cccc2c1C(=O)c1c(O)c3c(c(O)c1C2=O)C[C@@](O)(C(=O)CO)C[C@@H]3O[C@H]1C[C@H](N)[C@H](O)[C@H](C)O1` [DOX, doxorubicine], the relative growth rate in experiment [1] is on record as 10 ± 5; in experiment [2] it was 95 ± 5; in experiment [3] it was 95 ± 5.

Turning to `CN(Cc1cnc2nc(N)nc(N)c2n1)c1ccc(C(=O)N[C@@H](CCC(=O)O)C(=O)O)cc1` [MET, methotroxeate], the figures for the relative growth rate in experiment [1], in experiment [2] and in experiment [3] were 10 ± 5, 93 ± 5 and 95 ± 5, respectively.
